Measurements from US20190029252A1, “Use of Herbicide-tolerant Protein” (BEIJING DABEINONG TECHNOLOGY GROUP CO., LTD., priority 2016, published 2019).

Columns and labels:
Format in all cases: in vivo
[1] = tested on: Zm cytoplasmic ALT-1-02 maize plants; test: Tribenuron-methyl tolerance of maize plants, damage degree after spraying; conditions: 72 g ai/ha (4-fold field concentration)
Method: (§1) The damage degree caused by the herbicide was measured for each plant according to the plant growth status 3 days after spraying (3 DAT), 7 days after spraying (7 DAT), 14 days after spraying (14 DAT) and 21 days after spraying (21 DAT), respectively: considering a growth status equivalent to that of the untreated plants as having a damage degree of 0%; considering conditions of leaves being partially chlorotic and yellow but substantially not affecting the plant normal growth as having a damage degree of 50%; and considering the whole plant being purple and dying as having a damage degree of 100%. There were 2 strains in Zm cytoplasmic ALT-1-02 maize plants in total (S13 and S14), 2 strains in Zm chloroplastic ALT-1-02 maize plants in total (S15 and S16), 2 strains in Zm cytoplasmic ALT-2-02 maize plants in total (S17 and S18), 2 strains in Zm chloroplastic ALT-2-02 maize plants in total (S19 and S20), 2 strains in Zm cytoplasmic ALT-3-02 maize plants in total (S21 and S22), 2 strains in Zm chloroplastic ALT-3-02 maize plants in total (S23 and S24), and 1 strain in wild-type maize plants (CK2) in total; and 10-15 plants were selected from each strain and tested.

[2] = tested on: Zm chloroplastic ALT-3-02 maize plants; test: as above; conditions: 72 g ai/ha (4-fold field concentration)
Method: as §1

[3] = tested on: Zm chloroplastic ALT-1-02 maize plants; test: as above; conditions: 72 g ai/ha (4-fold field concentration)
Method: as §1

[4] = tested on: wild-type maize plants (CK2); test: as above
Method: as §1

[5] = tested on: Zm cytoplasmic ALT-3-02 maize plants; test: as above; conditions: 72 g ai/ha (4-fold field concentration)
Method: as §1

[6] = tested on: Zm chloroplastic ALT-2-02 maize plants; test: as above; conditions: 72 g ai/ha (4-fold field concentration)
Method: as §1

[7] = tested on: Zm cytoplasmic ALT-2-02 maize plants; test: as above; conditions: 72 g ai/ha (4-fold field concentration)
Method: as §1

[8] = tested on: transformed Arabidopsis thaliana T1 plants (ALT-1, ALT-2 and ALT-3); test: Herbicide tolerance of transgenic Arabidopsis thaliana T1 plants, overall conclusion; conditions: transgenic Arabidopsis thaliana T1 plants; 18 g ai/ha
Description: (§2) Plants were counted for the resistance situations 14 days after spraying: those having a consistent growth status with the blank solvent (water) group after 14 days were classified as highly resistant plants, those having a bolting height less than ½ of that of the blank solvent (water) group after 14 days were classified as moderately resistant plants, those still not capable of bolting after 14 days were classified as poorly resistant plants, and those dead after 14 days were classified as non-resistant plants. Since each Arabidopsis thaliana T1 plant was an independent transformation event, a significant difference in individual T1 responses could be expected at a given dose.
as §2, with “situation” for “situations”

[9] = maize strain S13 (Zm cytoplasmic ALT-1-02)
[10] = maize strain S14 (Zm cytoplasmic ALT-1-02)
[11] = maize strain S23 (Zm chloroplastic ALT-3-02)
[12] = maize strain S24 (Zm chloroplastic ALT-3-02)
[13] = maize strain S15 (Zm chloroplastic ALT-1-02)
[14] = maize strain S16 (Zm chloroplastic ALT-1-02)
[15] = maize strain CK2 (wild-type), 72 g ai/ha (4-fold field concentration)
[16] = maize strain S21 (Zm cytoplasmic ALT-3-02)
[17] = maize strain S22 (Zm cytoplasmic ALT-3-02)
[18] = maize strain S19 (Zm chloroplastic ALT-2-02)
[19] = maize strain S20 (Zm chloroplastic ALT-2-02)
[20] = maize strain S17 (Zm cytoplasmic ALT-2-02)
[21] = maize strain S18 (Zm cytoplasmic ALT-2-02)

COC(=O)c1ccccc1S(=O)(=O)NC(=O)N(C)c1nc(C)nc(OC)n1 [tribenuron-methyl, methyl 2-[N-(4-methoxy-6-methyl-1,3,5-triazin-2-yl)-N-methylaminoformamidosulfonyl]benzoate]
Average damage % 3DAT [1, 9]: 4% | Average damage % 7DAT [1, 9]: 0% | Average damage % 14DAT [1, 9]: 0% | Average damage % 21DAT [1, 9]: 0% | Average damage % 3DAT [1, 10]: 5% | Average damage % 7DAT [1, 10]: 0% | Average damage % 14DAT [1, 10]: 0% | Average damage % 21DAT [1, 10]: 0% | Average damage % 3DAT [2, 11]: 0% | Average damage % 7DAT [2, 11]: 0% | Average damage % 14DAT [2, 11]: 0% | Average damage % 21DAT [2, 11]: 0% | Average damage % 3DAT [2, 12]: 0% | Average damage % 7DAT [2, 12]: 0% | Average damage % 14DAT [2, 12]: 0% | Average damage % 21DAT [2, 12]: 0% | Average damage % 3DAT [3, 13]: 0% | Average damage % 7DAT [3, 13]: 0% | Average damage % 14DAT [3, 13]: 0% | Average damage % 21DAT [3, 13]: 0% | Average damage % 3DAT [3, 14]: 0% | Average damage % 7DAT [3, 14]: 0% | Average damage % 14DAT [3, 14]: 0% | Average damage % 21DAT [3, 14]: 0% | Average damage % 7DAT [4, 15]: 86% | Average damage % 14DAT [4, 15]: 100% | Average damage % 21DAT [4, 15]: 100% | herbicide tolerance (in words) ([4]; wild-type maize plants, 72 g ai/ha): not tolerant | Average damage % 3DAT [5, 16]: 3% | Average damage % 7DAT [5, 16]: 0% | Average damage % 14DAT [5, 16]: 0% | Average damage % 21DAT [5, 16]: 0% | Average damage % 3DAT [5, 17]: 5% | Average damage % 7DAT [5, 17]: 0% | Average damage % 14DAT [5, 17]: 0% | Average damage % 21DAT [5, 17]: 0% | Average damage % 3DAT [6, 18]: 0% | Average damage % 7DAT [6, 18]: 0% | Average damage % 14DAT [6, 18]: 0% | Average damage % 21DAT [6, 18]: 0% | Average damage % 3DAT [6, 19]: 0% | Average damage % 7DAT [6, 19]: 0% | Average damage % 14DAT [6, 19]: 0% | Average damage % 21DAT [6, 19]: 0% | Average damage % 3DAT [7, 20]: 6% | Average damage % 7DAT [7, 20]: 0% | Average damage % 14DAT [7, 20]: 0% | Average damage % 21DAT [7, 20]: 0% | Average damage % 3DAT [7, 21]: 5% | Average damage % 7DAT [7, 21]: 0% | Average damage % 14DAT [7, 21]: 0% | Average damage % 21DAT [7, 21]: 0% | herbicide tolerance conferred by thifensulfuron hydrolase (in words) [8]: conferred tribenuron-methyl herbicide tolerance
